IC50 data for 37 compounds are collected here from patent US11866431B2, “Bicyclic compounds” (Vivace Therapeutics, Inc., priority 2018, dated 2024).

pIC50: −log10 of the molar value.

One experiment deals with 8XTBD luciferase reporter (YAP reporter) in HEK293T cells. Put plainly: YAP Reporter Assay. The class given is cell-based. The settings on record: Homo sapiens, HEK-293T, 24 h, read-out: Firefly Luciferase IC50 (μM). The essentials: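 Dual-luciferase read-out after 24 h compound exposure at 37° C, 5% CO2; IC50 and maximum inhibition given separately for 8XTBD-firefly and TK-renilla signals. Stable HEK293T reporter cells, 3×10^3/well, received 10-point 1:3 series starting 3 μM final, in quadruplicate.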
(In general: A reporter such as luciferase makes a cellular process visible.)
In general, IC50 refers to the concentration needed to halve the response being measured. For the compound `CCOc1cc(-c2ccc(C(F)(F)F)cc2)c2ncc(C(=O)NC(C)C)cc2c1` [Compound 80, 6-ethoxy-N-isopropyl-8-(4-(trifluoromethyl)phenyl)quinoline-3-carboxamide], the IC50 was less than 0.1 µM.

The experiment is the same for the next values; noted with them: Homo sapiens, HEK-293T; HEK293T cells stably transfected with 8XTBD luciferase reporter and pRLTK; 24-hr incubation; top concentration 3 μM; read-out: Firefly Luciferase IC50.
A word on the pIC50: it is −log10 of the IC50, conventionally taken in molar units. As to `C[C@@H](NC(=O)c1ccc2c(-c3ccc(C(F)(F)F)cc3)cccc2c1)c1cc(N(C)C)ccn1` [Compound 223, (R)—N-(1-(4-(dimethylamino)pyridin-2-yl)ethyl)-5-(4-(trifluoromethyl)phenyl)-2-naphthamide], the pIC50 is 6.00 to 7.00.
Still for that read-out and setting: next, `CC(C)NC(=O)c1ccc2c(-c3ccc(C(F)(F)F)cc3)ccc(Br)c2c1` [Compound 8, 8-bromo-N-isopropyl-5-(4-(trifluoromethyl)phenyl)-2-naphthamide]: greater than 7.00; `O=C(NC1(CO)CC1)c1ccc2c(-c3ccc(C(F)(F)F)cc3)cccc2c1` [Compound 257, N-(1-(hydroxymethyl)cyclopropyl)-5-(4-(trifluoromethyl)phenyl)-2-naphthamide]: greater than 7.00.
The same measure, in the same setting: the same measure for `N#CCNC(=O)c1ccc2c(-c3ccc(C(F)(F)F)cc3)cccc2c1` [Compound 113, N-(cyanomethyl)-5-(4-(trifluoromethyl)phenyl)-2-naphthamide]: greater than 7.00; for `C[C@@H](NC(=O)c1ccc2c(-c3ccc(C(F)(F)F)cc3)cccc2c1)c1nccn1C` [Compound 254, (R)—N-(1-(1-methyl-1H-imidazol-2-yl)ethyl)-5-(4-(trifluoromethyl)phenyl)-2-naphthamide]: 6.00 to 7.00; for `C[C@@H](NC(=O)c1ccc2c(-c3ccc(C(F)(F)F)cc3)cccc2c1)C1CCC1` [Compound 252, (R)—N-(1-cyclobutylethyl)-5-(4-(trifluoromethyl)phenyl)-2-naphthamide]: 6.00 to 7.00.
Same read-out and setting: the same measure for `C[C@@H](NC(=O)c1ccc2c(-c3ccc(C(F)(F)F)cc3)cccc2c1)C(N)=O` [Compound 258, (R)—N-(1-amino-1-oxopropan-2-yl)-5-(4-(trifluoromethyl)phenyl)-2-naphthamide]: 6.00 to 7.00; for `O=C(NC(CCO)c1ccccn1)c1ccc2c(-c3ccc(C(F)(F)F)cc3)cccc2c1` (stereo not shown) [Compound 188, N-[3-hydroxy-1-(2-pyridyl)propyl]-5-[4-(trifluoromethyl)phenyl]naphthalene-2-carboxamide]: greater than 7.00.
Turning to `O=C(N[C@H](CCO)c1ccccn1)c1ccc2c(-c3ccc(C(F)(F)F)cc3)cccc2c1` [Compound 165, (R)—N-(3-hydroxy-1-(pyridin-2-yl)propyl)-5-(4-(trifluoromethyl)phenyl)-2-naphthamide], the pIC50 is 5.52 to 6.00.
Same read-out and setting: the same measure for `CC(C)(NC(=O)c1ccc2c(-c3ccc(C(F)(F)F)cc3)cccc2c1)c1ccccn1` [Compound 262, N-(2-(pyridin-2-yl)propan-2-yl)-5-(4-(trifluoromethyl)phenyl)-2-naphthamide]: 6.00 to 7.00; for `O=C(NCc1ccnc(COc2c(F)cccc2F)n1)c1ccc2c(-c3ccc(C(F)(F)F)cc3)cccc2c1` [Compound 172, N-((2-((2,6-difluorophenoxy)methyl)pyrimidin-4-yl)methyl)-5-(4-(trifluoromethyl)phenyl)-2-naphthamide]: 5.52 to 6.00.
For `O=C(NCCCCO)c1ccc2c(-c3ccc(C(F)(F)F)cc3)cccc2c1` [Compound 255, N-(4-hydroxybutyl)-5-(4-(trifluoromethyl)phenyl)-2-naphthamide], the pIC50 was 6.00 to 7.00.
The same measure, in the same setting: the same measure for `C[C@H](NC(=O)c1ccc2c(-c3ccc(C(F)(F)F)cc3)cccc2c1)C1(O)CNC1` [Compound 155, (S)—N-(1-(3-hydroxyazetidin-3-yl)ethyl)-5-(4-(trifluoromethyl)phenyl)-2-naphthamide]: 6.00 to 7.00; for `CC(C)NC(=O)c1ccc2c(-c3ccc(C(F)(F)F)cc3)ccc(C3CC3)c2c1` [Compound 22, 8-cyclopropyl-N-isopropyl-5-(4-(trifluoromethyl)phenyl)-2-naphthamide]: greater than 7.00; for `COc1cc(-c2ccc(C(F)(F)F)cc2)c2ncc(C(=O)NC(CO)c3ccccn3)cc2c1` (stereo not shown) [Compound 105, N-[2-hydroxy-1-(2-pyridyl)ethyl]-6-methoxy-8-[4-(trifluoromethyl)phenyl]quinoline-3-carboxamide]: greater than 7.00.
Still for that read-out and setting: next, `C[C@H](NC(=O)c1ccc2c(-c3ccc(C(F)(F)F)cc3)cccc2c1)c1cccc(N(C)C)n1` [Compound 287, (S)—N-(1-(6-(dimethylamino)pyridin-2-yl)ethyl)-5-(4-(trifluoromethyl)phenyl)-2-naphthamide]: 6.00 to 7.00; `NC(=O)/C=C/CCCNC(=O)c1ccc2c(-c3ccc(C(F)(F)F)cc3)cccc2c1` [Compound 202, N-[(E)-6-amino-6-oxo-hex-4-enyl]-5-[4-(trifluoromethyl)phenyl]naphthalene-2-carboxamide]: 6.00 to 7.00.
The same measure, in the same setting: the same measure for `N#CCCNC(=O)c1ccc2c(-c3ccc(C(F)(F)F)cc3)cccc2c1` [Compound 114, N-(2-cyanoethyl)-5-(4-(trifluoromethyl)phenyl)-2-naphthamide]: greater than 7.00; for `COc1cc(-c2ccc(C(F)(F)F)cc2)c2ccc(C(=O)N[C@@H](C)CO)cc2c1` [Compound 296, (S)—N-(1-Hydroxypropan-2-yl)-7-methoxy-5-(4-(trifluoromethyl)phenyl)-2-naphthamide]: greater than 7.00; for `CC(C)NC(=O)c1ccc2c(-c3ccc(C(F)(F)F)cc3)ccc(S(C)(=O)=O)c2c1` [Compound 28, N-isopropyl-8-methylsulfonyl-5-[4-(trifluoromethyl)phenyl]naphthalene-2-carboxamide]: 5.52 to 6.00.
Regarding `CC(C)NC(=O)c1cnc2c(-c3ccc(C(F)(F)F)cc3)cc(OC3CC3)cc2c1` [Compound 116, 6-cyclopropoxy-N-isopropyl-8-(4-(trifluoromethyl)phenyl)quinoline-3-carboxamide], the pIC50 is greater than 7.00.
Regarding `O=C(NCc1cccc(COc2ccon2)c1)c1ccc2c(-c3ccc(C(F)(F)F)cc3)cccc2c1` [Compound 192, N-(3-((isoxazol-3-yloxy)methyl)benzyl)-5-(4-(trifluoromethyl)phenyl)-2-naphthamide], the pIC50 was 6.00 to 7.00.
The same measure, in the same setting: the same measure for `CC(C)(CO)NC(=O)c1ccc2c(-c3ccc(C(F)(F)F)cc3)cccc2c1` [Compound 263, N-(1-hydroxy-2-methylpropan-2-yl)-5-(4-(trifluoromethyl)phenyl)-2-naphthamide]: 6.00 to 7.00; for `C[C@H](NC(=O)c1ccc2c(-c3ccc(C(F)(F)F)cc3)cccc2c1)c1cc(N)ccn1` [Compound 214, (S)—N-(1-(4-aminopyridin-2-yl)ethyl)-5-(4-(trifluoromethyl)phenyl)-2-naphthamide]: 5.52 to 6.00; for `C[C@@H](NC(=O)c1ccc2c(-c3ccc(C(F)(F)F)cc3)cccc2c1)c1cccc2nc[nH]c12` [Compound 173, N-[(1R)-1-(3H-benzimidazol-4-yl)ethyl]-5-[4-(trifluoromethyl)phenyl]naphthalene-2-carboxamide]: 6.00 to 7.00.
Still for that read-out and setting: the same measure for `C[C@@H](NC(=O)c1ccc2c(-c3ccc(C(F)(F)F)cc3)cccc2c1)C1CC1` [Compound 290, (R)—N-(1-cyclopropylethyl)-5-(4-(trifluoromethyl)phenyl)-2-naphthamide]: greater than 7.00; for `N#Cc1cccc(CNC(=O)c2ccc3c(-c4ccc(C(F)(F)F)cc4)cccc3c2)n1` [Compound 191, N-((6-cyanopyridin-2-yl)methyl)-5-(4-(trifluoromethyl)phenyl)-2-naphthamide]: 6.00 to 7.00.
On the same count and under the same terms, next, `CC(C)NC(=O)c1ccc2c(-c3ccc(C(F)(F)F)cc3)cc3onnc3c2c1` [Compound 35, N-isopropyl-5-[4-(trifluoromethyl)phenyl]benzo[e][1,2,3]benzoxadiazole-8-carboxamide]: 6.00 to 7.00.
With `CC(=O)Nc1cc(-c2ccc(C(F)(F)F)cc2)c2ccc(C(=O)NC(C)C)cc2c1` [Compound 48, 7-acetamido-N-isopropyl-5-(4-(trifluoromethyl)phenyl)-2-naphthamide], the negative logarithm of the IC50 (pIC50) was 6.00 to 7.00.
On the same count and under the same terms, next, `CS(=O)(=O)NC(=O)c1ccc2c(-c3ccc(C(F)(F)F)cc3)cccc2c1` [Compound 2, N-(methylsulfonyl)-5-(4-(trifluoromethyl)phenyl)-2-naphthamide]: greater than 7.00; `O=C(NC(CCO)CCO)c1cnc2c(-c3ccc(C(F)(F)F)cc3)cccc2c1` [Compound 160, N-(1,5-dihydroxypentan-3-yl)-8-(4-(trifluoromethyl)phenyl)quinoline-3-carboxamide]: 5.52 to 6.00.
With `COC(=O)c1ccc2c(-c3ccc(C(F)(F)F)cc3)cnc(Cl)c2c1` [Compound 10, Methyl 1-chloro-4-[4-(trifluoromethyl)phenyl]isoquinoline-7-carboxylate], the pIC50 is 5.52 to 6.00.
Still for that read-out and setting: the same measure for `C[C@@H](NC(=O)c1ccc2c(-c3ccc(C(F)(F)F)cc3)cccc2c1)C1CN(CC(F)F)C1` [Compound 137, (R)—N-(1-(1-(2,2-difluoroethyl)azetidin-3-yl)ethyl)-5-(4-(trifluoromethyl)phenyl)-2-naphthamide]: 6.00 to 7.00; for `C[C@@H](NC(=O)c1ccc2c(-c3ccc(C(F)(F)F)cc3)cccc2c1)c1cccc2cn[nH]c12` [Compound 182, N-[(1R)-1-(1H-indazol-7-yl)ethyl]-5-[4-(trifluoromethyl)phenyl]naphthalene-2-carboxamide]: greater than 7.00.
Same read-out and setting: the same measure for `C#Cc1ccc(-c2ccc(C(F)(F)F)cc2)c2ccc(C(=O)NC(C)C)cc12` [Compound 20, 8-ethynyl-N-isopropyl-5-[4-(trifluoromethyl)phenyl]naphthalene-2-carboxamide]: greater than 7.00; for `COC[C@H](C)NC(=O)c1ccc2c(-c3ccc(C(F)(F)F)cc3)cccc2n1` [Compound 246, (S)—N-(1-Methoxypropan-2-yl)-5-(4-(trifluoromethyl)phenyl)quinoline-2-carboxamide]: 6.00 to 7.00.
